Assays:
B2 = target: T1, B2 (Homo sapiens, UniProt P30411); assay: Bioprofiling 6pt Antag B2 CHO; format: cell-based; conditions: antagonist readout vs Bradykinin
T1 construct: expressed in transfected cells; host or cells: CHO
T1 sequence (P30411 1-391): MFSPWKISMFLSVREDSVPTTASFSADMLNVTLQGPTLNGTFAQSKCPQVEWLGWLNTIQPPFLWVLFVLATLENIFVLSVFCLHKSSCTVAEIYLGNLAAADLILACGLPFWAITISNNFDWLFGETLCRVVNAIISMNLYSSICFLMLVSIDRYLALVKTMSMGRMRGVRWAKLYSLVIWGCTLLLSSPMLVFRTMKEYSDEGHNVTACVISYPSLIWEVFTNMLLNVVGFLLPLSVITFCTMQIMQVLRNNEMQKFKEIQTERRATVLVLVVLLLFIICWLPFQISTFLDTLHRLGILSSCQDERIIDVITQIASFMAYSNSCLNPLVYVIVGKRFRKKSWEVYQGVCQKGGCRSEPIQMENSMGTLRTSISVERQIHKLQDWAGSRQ
Procedure: (§1) The compounds were evaluated across a panel of 20 liability targets (37 functional assays) which included functional cell-based GPCRs and ion channels in both agonist and antagonist readout, measuring calcium flux and biochemical functional assays for nuclear hormone receptors and phosphodiesterases using TR-FRET format, in a 6 point 1:3 dilution dose series (maximum final concentration of 10 μM).

CB1 = target: T2, CB1 (Homo sapiens, UniProt P21554); assay: Bioprofiling 6pt Ag CB1 CHO; format: cell-based; conditions: agonist readout
T2 construct: expressed in transfected cells; host or cells: CHO
Procedure: as §1

Beta1 = target: T3, Beta1 (Homo sapiens, UniProt P08588); assay: Bioprofiling 6pt Antag Beta1 CHO; format: cell-based; conditions: antagonist readout vs Norepinephrine
T3 construct: expressed in transfected cells; host or cells: CHO
Procedure: as §1

Medium protein binding = format: in vitro ADME; conditions: for Media Binding: S1 Data; for Medium binding: % bound
Procedure: For plasma protein binding, pooled plasma was thawed in a water bath at 37°C and centrifuged at 4,000 rpm for 5 min to remove any clots. The pH value was measured and adjusted to 7.4, if necessary. RPMI medium (pH 7.4) supplemented with 10% fetal calf serum was used. Working solutions (400 μM) of test compounds were prepared by diluting appropriate volume of the stock solutions with DMSO. Working solutions (400 μM) were spiked into plasma to achieve 2 μM final concentrations as loading solutions. The concentration of organic solvent in the final solutions was 0.5% DMSO. The dialysis instrument was assembled following manufacturer’s instructions. Aliquots of loading solution were loaded in triplicate to the donor side of each dialysis well and dialyzed against an equal volume of dialysis buffer. The plate was shaken and incubated for 6 hours in a humidified incubator with 5% CO2 at 37°C. At the end of dialysis, aliquots of dialysate and retentate were removed into sample collection plates. Each sample was matched with an opposite blank buffer or plasma, with a ratio of matrix:dialysis buffer of 50:50 (v:v) in each well and participated with 500μL of stop solution (50% acetonitrile/methanol; internal standards—200 ng/mL tolbutamide, labetalol and 50 ng/mL metformin). All sample collection plates were rotated at 800 rpm for 5 min to mix samples and centrifuged at 20°C, 4000 rpm for 20 min. Aliquots of supernatant of all the samples were removed and injected into LC-MS/MS. Results were calculated as the percentage of remaining parent compound in plasma or medium after incubation.

[1] = Experimental distribution coefficient (eLogD); format: physicochemical; conditions: for chromatographic logD: reverse stationary phase HPLC column (Ascentis RP-Amide)
In short: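 Lipophilicity derived from retention time on an Ascentis RP-Amide reverse-phase column by LC-MS/MS, compounds at 1.0 μg/mL with internal standard; mobile phases 5% methanol in 10mM ammonium acetate pH 7.4 and 100% methanol. LogD calculated from a linear calibration of eight standards' retention times against known LogD.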

Kv11.1 (hERG) = target: T4, Kv11.1 (hERG) (Homo sapiens, UniProt Q12809); assay: hERG thallium influx assay; format: cell-based; conditions: KCl, read-out: Bioprofiling 6pt Thallium Influx Antag Kv11.1 (hERG) CHO Human IC50
T4 construct: host or cells: T-REx-CHO, doxycycline-induced
Procedure: This was adapted from the literature method;[28] briefly, hERG functional activity was measured in an inducible hERG T-RExTM-CHO Cell line (ThermoFisher #K1237) using thallium influx as a surrogate indicator of potassium ion channel activity. Thallium enhances the fluorescent signal of BTC-AM dye (ThermoFisher #B6791). 384 well plates were seeded at 15,000 cells/well with doxycycline hyclate, included to induce expression of the hERG channel, and grown for 48 hours. Media was removed and cells were loaded with 4 μM dye for 90 mins in a low potassium buffer, dye was then removed and compound added to the cells in a high potassium buffer in a 6 point 1:3 dilution dose series (maximum final concentration of 30 μM). After 30 mins of compound incubation, channel activity was recorded upon addition of thallium buffer using a Tetra plate reader. The slope of the kinetic read was used to calculate channel activity.

M2 = target: T5, M2 (Homo sapiens, UniProt P08172); assay: Bioprofiling 6pt Antag M2 CHO; format: cell-based; conditions: antagonist readout vs Carbachol
T5 construct: expressed in transfected cells; host or cells: CHO
T5 sequence (P08172 1-466): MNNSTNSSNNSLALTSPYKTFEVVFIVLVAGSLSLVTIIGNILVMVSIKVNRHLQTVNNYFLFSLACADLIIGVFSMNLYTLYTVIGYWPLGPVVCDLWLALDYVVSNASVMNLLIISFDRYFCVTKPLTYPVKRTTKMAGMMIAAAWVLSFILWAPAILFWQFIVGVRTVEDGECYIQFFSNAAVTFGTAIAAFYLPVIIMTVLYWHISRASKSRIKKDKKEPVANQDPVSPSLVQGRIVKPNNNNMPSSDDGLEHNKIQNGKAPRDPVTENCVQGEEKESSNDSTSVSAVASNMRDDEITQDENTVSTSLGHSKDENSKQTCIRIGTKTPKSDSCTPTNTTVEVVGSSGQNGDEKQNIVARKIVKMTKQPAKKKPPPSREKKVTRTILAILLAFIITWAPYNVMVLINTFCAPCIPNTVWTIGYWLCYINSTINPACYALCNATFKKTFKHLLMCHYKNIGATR
Procedure: as §1

T3 sequence (P08588 whole entry): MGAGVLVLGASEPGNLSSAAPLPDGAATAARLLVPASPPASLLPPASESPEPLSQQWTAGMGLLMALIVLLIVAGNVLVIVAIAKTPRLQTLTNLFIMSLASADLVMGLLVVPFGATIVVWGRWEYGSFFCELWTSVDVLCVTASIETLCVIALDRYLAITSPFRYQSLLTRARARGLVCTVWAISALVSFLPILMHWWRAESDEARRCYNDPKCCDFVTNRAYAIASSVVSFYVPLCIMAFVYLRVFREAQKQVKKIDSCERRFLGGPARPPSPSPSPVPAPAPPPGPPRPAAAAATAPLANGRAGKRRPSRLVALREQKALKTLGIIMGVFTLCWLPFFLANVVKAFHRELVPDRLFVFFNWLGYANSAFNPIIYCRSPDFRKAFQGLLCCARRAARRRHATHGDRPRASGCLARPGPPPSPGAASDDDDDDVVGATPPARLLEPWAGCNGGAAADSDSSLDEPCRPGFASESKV
T4 sequence (Q12809 whole entry): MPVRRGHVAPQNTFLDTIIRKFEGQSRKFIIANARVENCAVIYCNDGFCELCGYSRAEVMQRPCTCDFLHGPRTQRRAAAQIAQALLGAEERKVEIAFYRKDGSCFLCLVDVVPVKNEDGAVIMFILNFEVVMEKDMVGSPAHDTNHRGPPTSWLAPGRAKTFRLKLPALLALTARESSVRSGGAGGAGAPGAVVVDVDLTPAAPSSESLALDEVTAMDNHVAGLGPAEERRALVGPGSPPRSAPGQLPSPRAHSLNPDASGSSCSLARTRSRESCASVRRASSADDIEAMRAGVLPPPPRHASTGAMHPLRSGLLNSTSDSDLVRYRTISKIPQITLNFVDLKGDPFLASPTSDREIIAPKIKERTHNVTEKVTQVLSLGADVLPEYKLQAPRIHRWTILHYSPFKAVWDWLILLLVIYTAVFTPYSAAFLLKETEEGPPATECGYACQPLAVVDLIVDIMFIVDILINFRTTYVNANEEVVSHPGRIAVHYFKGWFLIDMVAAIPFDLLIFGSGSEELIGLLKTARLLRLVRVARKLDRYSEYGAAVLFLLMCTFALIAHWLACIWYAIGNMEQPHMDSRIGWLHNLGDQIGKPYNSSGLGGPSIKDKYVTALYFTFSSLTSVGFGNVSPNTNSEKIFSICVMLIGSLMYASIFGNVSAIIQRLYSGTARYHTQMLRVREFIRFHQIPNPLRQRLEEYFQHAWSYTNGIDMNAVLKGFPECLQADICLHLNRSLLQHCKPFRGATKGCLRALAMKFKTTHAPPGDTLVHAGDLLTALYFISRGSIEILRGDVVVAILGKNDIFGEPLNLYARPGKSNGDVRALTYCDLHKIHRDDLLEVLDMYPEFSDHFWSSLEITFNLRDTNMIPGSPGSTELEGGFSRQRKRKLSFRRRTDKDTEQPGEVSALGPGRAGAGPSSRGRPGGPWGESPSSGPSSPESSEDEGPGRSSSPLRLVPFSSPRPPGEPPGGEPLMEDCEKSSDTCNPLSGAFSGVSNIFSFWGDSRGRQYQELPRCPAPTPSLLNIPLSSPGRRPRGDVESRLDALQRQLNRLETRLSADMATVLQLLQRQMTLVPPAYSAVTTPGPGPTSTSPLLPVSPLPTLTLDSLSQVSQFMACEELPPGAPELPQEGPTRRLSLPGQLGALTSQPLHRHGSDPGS
T2 sequence (P21554 whole entry): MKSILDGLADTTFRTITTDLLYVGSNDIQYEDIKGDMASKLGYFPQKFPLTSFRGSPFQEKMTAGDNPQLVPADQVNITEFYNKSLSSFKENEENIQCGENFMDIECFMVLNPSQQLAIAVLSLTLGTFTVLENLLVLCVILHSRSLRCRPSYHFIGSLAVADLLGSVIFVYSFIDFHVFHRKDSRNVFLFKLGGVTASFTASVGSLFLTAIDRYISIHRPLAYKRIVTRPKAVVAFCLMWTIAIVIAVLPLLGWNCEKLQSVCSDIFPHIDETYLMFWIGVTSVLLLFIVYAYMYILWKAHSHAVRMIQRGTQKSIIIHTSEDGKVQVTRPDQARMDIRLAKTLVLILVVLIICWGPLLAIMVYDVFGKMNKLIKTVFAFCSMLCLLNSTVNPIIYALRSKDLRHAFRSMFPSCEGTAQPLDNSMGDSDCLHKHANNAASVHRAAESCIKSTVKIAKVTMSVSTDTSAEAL

Row | SMILES | IC50 (B2) [µM] | EC50 (CB1) [µM] | IC50 (Beta1) [µM] | Media Binding (Medium protein binding) [%] | eLogD ([1]; experimental, pH 7.4) | chromatographic logD ([1]; pH 7.4, S1 Data) | IC50 (Kv11.1 (hERG)) [µM] | IC50 (M2) [µM] | Medium binding (Medium protein binding) [%] | eLogD ([1]; S1 Data) | chromatographic logD ([1]; experimental, pH 7.4)
1 | N#Cc1ccc2nc(NC(=O)c3ccc(C(F)(F)F)nc3)n(CC(F)(F)F)c2c1 [Compound 45, O=C(c1ccc(C(F)(F)F)nc1)Nc2nc(ccc(C#N)c3)c3n2CC(F)(F)F] | > 10 | > 10 | > 10 | 83.98 | 3.1 | 3.1 | > 30 | > 10 | – | – | –
2 | Cn1nc(C(F)(F)F)cc1C(=O)Nc1nc2ccc(C#N)cc2n1CC(F)(F)F [Compound 39, O=C(c1cc(C(F)(F)F)nn1C)Nc2nc(ccc(C#N)c3)c3n2CC(F)(F)F] | > 10 | > 10 | > 10 | 88.34 | – | – | > 30 | > 10 | 88.3 | 3.01 | 3
3 | Cn1nccc1C(=O)Nc1nc2ccc(C#N)cc2n1CC(C)(C)C [Compound 29, O=C(Nc1n(CC(C)(C)C)c(c2n1)cc(C#N)cc2)c3n(C)ncc3] | > 10 | > 10 | > 10 | 57.20 | – | – | > 30 | > 10 | – | 3.39 | 3.4
4 | N#Cc1ccc2nc(NC(=O)c3ccnc(C(F)(F)F)c3)n(CC(F)(F)F)c2c1 [Compound 44, O=C(c1ccnc(C(F)(F)F)c1)Nc2nc(ccc(C#N)c3)c3n2CC(F)(F)F] | > 10 | > 10 | > 10 | 88.65 | – | – | > 30 | > 10 | 88.7 | 3.12 | 3.1
5 | Cn1nccc1C(=O)Nc1nc2ccc(C#N)cc2n1CC(F)(F)F [Compound 30, O=C(c1ccnn1C)Nc2nc(ccc(C#N)c3)c3n2CC(F)(F)F] | > 10 | > 10 | > 10 | 29.15 | – | – | > 30 | > 10 | 29.2 | 2.70 | 2.7
6 | COc1ccc(C(=O)Nc2nc3ccc(C#N)cc3n2CC(F)(F)F)cn1 [Compound 43, O=C(c1ccc(OC)nc1)Nc2nc(ccc(C#N)c3)c3n2CC(F)(F)F] | > 10 | > 10 | > 10 | 56.74 | 4.9 | 4.85 | > 30 | > 10 | – | – | –
